From patent publication US4022787A (priority 1975, dated 1977)
Counter-ions that a name gives are not always drawn.

Columns and labels:
rabbit eye pupil = details: in vivo
sweat glands = details: cited from earlier work

| SMILES | rabbit eye pupil result compared with test compound (rabbit eye pupil) | sweat inhibition (sweat glands) |
| --- | --- | --- |
| CN1[C@@H]2CC[C@H]1C[C@@H](OC(=O)C(CO)c1ccccc1)C2 (some centres unmarked) [Atropine sulfate] | gave similar results | – |
| CN1C2CC(OC(=O)C(COC(=O)c3ccccc3)c3ccccc3)CC1C1OC12 (centres unmarked) [benzoyl ester of scopolamine] | – | valuable for sweat inhibition |
